Data taken from BindingDB's records for doi:10.1124/jpet.102.045674 (Pudue Pharma Discovery Research, 2003).

Tests used:
[1] = molecular target: Small conductance calcium-activated potassium channel protein 1 (Rattus norvegicus, UniProt P70606)
Substance-P receptor = Substance-P receptor (Rattus norvegicus, UniProt P14600)
[2] = molecular target: Gamma-aminobutyric acid (GABA) B receptor 1 (Rattus norvegicus, UniProt Q6MFX8)
Endothelin-1 receptor = Endothelin-1 receptor (Rattus norvegicus, UniProt P26684)
[3] = molecular target: Corticotropin releasing factor receptor (Rattus norvegicus) (UniProt P35353)
Sequence of Corticotropin releasing factor receptor (Rattus norvegicus) (P35353 whole entry, looked up): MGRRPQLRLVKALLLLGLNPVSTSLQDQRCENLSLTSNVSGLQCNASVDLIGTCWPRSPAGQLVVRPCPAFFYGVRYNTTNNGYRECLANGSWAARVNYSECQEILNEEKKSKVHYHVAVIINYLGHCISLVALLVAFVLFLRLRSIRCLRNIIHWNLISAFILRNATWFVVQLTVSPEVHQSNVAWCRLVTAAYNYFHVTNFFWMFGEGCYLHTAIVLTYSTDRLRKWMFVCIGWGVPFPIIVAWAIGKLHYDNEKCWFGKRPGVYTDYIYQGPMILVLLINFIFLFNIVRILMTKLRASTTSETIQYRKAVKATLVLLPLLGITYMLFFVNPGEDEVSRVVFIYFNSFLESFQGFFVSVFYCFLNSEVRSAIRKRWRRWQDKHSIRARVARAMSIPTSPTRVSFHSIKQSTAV

[4] = molecular target: Leukotriene B4 receptor 1 (Rattus norvegicus, UniProt Q9R0Q2)
[5] = molecular target: Muscarinic acetylcholine receptor M2 (Rattus norvegicus, UniProt P10980)
Sequence of Muscarinic acetylcholine receptor M2 (P10980 whole entry): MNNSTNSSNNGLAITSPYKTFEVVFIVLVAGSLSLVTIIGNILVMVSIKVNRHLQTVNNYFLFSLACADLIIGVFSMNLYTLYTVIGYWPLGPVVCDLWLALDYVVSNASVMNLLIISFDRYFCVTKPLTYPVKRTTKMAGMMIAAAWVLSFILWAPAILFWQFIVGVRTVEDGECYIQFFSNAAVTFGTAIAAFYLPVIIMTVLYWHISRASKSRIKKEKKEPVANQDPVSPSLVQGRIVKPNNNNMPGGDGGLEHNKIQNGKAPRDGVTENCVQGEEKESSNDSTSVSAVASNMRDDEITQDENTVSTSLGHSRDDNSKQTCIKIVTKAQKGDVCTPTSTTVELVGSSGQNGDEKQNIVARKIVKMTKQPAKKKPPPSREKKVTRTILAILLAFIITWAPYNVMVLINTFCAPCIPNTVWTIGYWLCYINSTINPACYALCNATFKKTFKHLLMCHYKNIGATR

[6] = molecular target: Muscarinic acetylcholine receptor M1 (Rattus norvegicus, UniProt P08482)
[7] = molecular target: Glycine receptor subunit alpha-1 (Rattus norvegicus, UniProt P07727)
[8] = molecular target: Glutamate decarboxylase 2 (Rattus norvegicus, UniProt Q05683)
Sequence of Glutamate decarboxylase 2 (Q05683 whole entry): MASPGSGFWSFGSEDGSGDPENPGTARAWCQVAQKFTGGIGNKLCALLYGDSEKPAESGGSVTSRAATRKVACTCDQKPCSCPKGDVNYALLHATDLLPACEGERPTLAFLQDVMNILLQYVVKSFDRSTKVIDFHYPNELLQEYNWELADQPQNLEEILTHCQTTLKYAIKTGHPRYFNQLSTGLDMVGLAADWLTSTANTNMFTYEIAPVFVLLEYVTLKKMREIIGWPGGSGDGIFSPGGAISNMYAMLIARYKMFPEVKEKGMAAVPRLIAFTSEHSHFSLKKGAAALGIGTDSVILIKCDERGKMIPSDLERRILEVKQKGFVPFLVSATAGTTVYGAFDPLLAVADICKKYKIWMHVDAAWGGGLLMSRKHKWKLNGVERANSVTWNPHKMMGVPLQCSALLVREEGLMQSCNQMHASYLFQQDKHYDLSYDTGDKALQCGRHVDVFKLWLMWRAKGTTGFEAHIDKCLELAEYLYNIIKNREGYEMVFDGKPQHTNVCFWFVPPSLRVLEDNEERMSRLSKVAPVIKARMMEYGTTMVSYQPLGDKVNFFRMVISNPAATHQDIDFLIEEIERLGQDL

[9] = molecular target: Type-1 angiotensin II receptor A (Rattus norvegicus, UniProt P25095)
D(1A) dopamine receptor = D(1A) dopamine receptor (Rattus norvegicus, UniProt P18901)
Substance-K receptor = Substance-K receptor (Rattus norvegicus, UniProt P16610)
[10] = molecular target: Beta-2 adrenergic receptor (Rattus norvegicus, UniProt P10608)
Oxytocin receptor = Oxytocin receptor (Rattus norvegicus, UniProt P70536)
Sequence of Oxytocin receptor (P70536 whole entry): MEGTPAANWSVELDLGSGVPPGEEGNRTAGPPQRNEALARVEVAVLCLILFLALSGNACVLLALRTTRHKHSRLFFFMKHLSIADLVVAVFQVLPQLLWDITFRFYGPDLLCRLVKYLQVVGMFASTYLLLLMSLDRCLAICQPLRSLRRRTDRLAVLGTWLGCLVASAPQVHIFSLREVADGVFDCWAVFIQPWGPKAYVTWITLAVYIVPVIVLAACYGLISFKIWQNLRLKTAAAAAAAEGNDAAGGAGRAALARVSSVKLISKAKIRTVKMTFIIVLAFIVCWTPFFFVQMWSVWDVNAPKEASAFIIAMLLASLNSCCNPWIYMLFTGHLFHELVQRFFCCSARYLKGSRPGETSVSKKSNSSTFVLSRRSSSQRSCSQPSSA

[11] = molecular target: Amine oxidase [flavin-containing] B (Rattus norvegicus, UniProt P19643)
[12] = molecular target: Melatonin receptor type 1A (Rattus norvegicus, UniProt P49218)
Sequence of Melatonin receptor type 1A (P49218 whole entry): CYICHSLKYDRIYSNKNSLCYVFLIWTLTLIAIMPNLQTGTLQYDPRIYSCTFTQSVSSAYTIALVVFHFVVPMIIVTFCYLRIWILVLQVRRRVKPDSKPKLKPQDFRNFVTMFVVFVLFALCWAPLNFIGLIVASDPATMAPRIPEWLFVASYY

[13] = molecular target: Sodium channel protein type 1 subunit alpha (Rattus norvegicus, UniProt P04774)
[14] = molecular target: Alpha-1A adrenergic receptor (Rattus norvegicus, UniProt P43140)
Histamine H2 receptor = Histamine H2 receptor (Rattus norvegicus, UniProt P25102)
[15] = molecular target: Choline O-acetyltransferase (Rattus norvegicus, UniProt P32738)
[16] = molecular target: Platelet-activating factor receptor (Rattus norvegicus, UniProt P46002)
Sequence of Platelet-activating factor receptor (P46002 whole entry): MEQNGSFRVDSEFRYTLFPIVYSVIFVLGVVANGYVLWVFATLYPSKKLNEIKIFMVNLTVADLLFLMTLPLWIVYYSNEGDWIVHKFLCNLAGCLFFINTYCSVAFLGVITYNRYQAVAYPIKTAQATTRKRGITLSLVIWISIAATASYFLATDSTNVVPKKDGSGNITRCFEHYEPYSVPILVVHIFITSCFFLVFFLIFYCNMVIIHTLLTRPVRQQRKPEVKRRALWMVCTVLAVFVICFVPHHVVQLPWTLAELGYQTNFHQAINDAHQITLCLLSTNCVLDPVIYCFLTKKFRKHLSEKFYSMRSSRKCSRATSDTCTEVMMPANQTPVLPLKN

[17] = molecular target: Cysteinyl leukotriene receptor 1 (Rattus norvegicus, UniProt Q924T8)
Thromboxane A2 receptor = Thromboxane A2 receptor (Rattus norvegicus, UniProt P34978)
Sequence of Thromboxane A2 receptor (P34978 whole entry): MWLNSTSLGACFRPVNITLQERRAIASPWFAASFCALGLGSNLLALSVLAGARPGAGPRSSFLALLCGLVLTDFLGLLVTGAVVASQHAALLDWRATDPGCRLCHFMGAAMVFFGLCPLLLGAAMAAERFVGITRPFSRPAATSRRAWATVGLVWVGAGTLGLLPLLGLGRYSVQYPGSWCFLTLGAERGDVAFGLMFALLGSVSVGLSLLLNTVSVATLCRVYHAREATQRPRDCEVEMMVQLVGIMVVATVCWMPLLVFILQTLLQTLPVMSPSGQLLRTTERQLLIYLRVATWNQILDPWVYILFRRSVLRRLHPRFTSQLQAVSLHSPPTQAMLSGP

[18] = molecular target: Sodium-dependent dopamine transporter (Rattus norvegicus, UniProt P23977)
Estrogen receptor = Estrogen receptor (Rattus norvegicus, UniProt P06211)
Sequence of Estrogen receptor (P06211 whole entry): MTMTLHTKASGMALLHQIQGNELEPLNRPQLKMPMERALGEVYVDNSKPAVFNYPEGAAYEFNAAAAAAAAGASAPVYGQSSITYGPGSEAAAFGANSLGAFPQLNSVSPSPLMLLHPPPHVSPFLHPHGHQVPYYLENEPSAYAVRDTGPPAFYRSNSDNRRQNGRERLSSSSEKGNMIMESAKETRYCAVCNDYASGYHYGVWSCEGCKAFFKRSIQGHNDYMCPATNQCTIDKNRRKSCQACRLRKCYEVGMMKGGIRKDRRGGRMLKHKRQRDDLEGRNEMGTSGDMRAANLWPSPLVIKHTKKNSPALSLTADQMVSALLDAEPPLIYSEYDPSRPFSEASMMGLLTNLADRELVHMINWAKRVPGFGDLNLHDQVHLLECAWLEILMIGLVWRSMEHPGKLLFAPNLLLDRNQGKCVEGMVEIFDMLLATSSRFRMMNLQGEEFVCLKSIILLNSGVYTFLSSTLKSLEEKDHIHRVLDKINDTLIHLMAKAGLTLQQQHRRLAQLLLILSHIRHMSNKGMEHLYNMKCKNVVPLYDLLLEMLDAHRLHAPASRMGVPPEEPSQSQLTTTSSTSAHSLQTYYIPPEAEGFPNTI

[19] = molecular target: Androgen receptor (Rattus norvegicus) (UniProt P15207)
[20] = molecular target: Glutamate receptor ionotropic, kainate 1 (Rattus norvegicus, UniProt P22756)
[21] = molecular target: Sodium channel protein type 2 subunit alpha (Rattus norvegicus, UniProt P04775)
[22] = molecular target: Alpha-2C adrenergic receptor (Rattus norvegicus, UniProt P22086)
[23] = molecular target: Gamma-aminobutyric acid receptor subunit alpha-1 (Rattus norvegicus, UniProt P62813)
Sequence of Gamma-aminobutyric acid receptor subunit alpha-1 (P62813 whole entry): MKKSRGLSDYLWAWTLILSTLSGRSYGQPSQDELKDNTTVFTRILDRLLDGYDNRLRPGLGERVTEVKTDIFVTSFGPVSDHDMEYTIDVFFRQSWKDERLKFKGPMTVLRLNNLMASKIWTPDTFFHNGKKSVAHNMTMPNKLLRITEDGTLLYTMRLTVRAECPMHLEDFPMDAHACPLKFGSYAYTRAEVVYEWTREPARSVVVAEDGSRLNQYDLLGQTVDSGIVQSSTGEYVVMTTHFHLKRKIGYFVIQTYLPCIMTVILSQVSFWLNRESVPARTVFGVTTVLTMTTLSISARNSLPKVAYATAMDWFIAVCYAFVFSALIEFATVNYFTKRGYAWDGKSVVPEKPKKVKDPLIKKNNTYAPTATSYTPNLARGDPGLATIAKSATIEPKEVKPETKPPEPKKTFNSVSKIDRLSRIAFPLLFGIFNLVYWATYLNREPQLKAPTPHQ

[24] = molecular target: Nicotinic acetylcholine receptor (Rattus leucopus, UniProt Q62594)
[25] = molecular target: ATP-sensitive inward rectifier potassium channel 1 (Rattus norvegicus, UniProt P35560)
B2 bradykinin receptor = B2 bradykinin receptor (Rattus norvegicus, UniProt P25023)
Sequence of B2 bradykinin receptor (P25023 whole entry): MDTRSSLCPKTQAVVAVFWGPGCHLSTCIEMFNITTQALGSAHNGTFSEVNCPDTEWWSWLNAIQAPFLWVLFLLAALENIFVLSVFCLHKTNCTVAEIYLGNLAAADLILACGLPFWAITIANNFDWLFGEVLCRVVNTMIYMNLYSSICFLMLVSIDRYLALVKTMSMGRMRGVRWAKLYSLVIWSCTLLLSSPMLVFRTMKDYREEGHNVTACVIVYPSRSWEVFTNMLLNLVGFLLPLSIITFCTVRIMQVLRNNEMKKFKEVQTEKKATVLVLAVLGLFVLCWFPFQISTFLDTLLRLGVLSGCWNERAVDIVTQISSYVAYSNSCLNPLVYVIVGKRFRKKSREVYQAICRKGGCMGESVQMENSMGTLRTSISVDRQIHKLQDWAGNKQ

[26] = molecular target: Vasopressin V1a receptor (Rattus norvegicus) (UniProt P30560)
Sequence of Vasopressin V1a receptor (Rattus norvegicus) (P30560 whole entry, looked up): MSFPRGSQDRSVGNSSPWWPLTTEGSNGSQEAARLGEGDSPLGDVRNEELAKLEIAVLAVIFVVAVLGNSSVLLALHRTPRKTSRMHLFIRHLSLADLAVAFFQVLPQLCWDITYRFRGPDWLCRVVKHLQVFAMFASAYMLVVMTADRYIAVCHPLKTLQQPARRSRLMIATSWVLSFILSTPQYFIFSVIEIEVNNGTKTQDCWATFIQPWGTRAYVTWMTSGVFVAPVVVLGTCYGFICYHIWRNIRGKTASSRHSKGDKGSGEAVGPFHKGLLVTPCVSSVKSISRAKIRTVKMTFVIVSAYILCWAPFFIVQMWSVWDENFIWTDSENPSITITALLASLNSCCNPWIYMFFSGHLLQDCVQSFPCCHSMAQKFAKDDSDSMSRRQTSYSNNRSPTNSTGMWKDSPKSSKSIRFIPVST

[27] = molecular target: Nitric oxide synthase, brain (Rattus norvegicus, UniProt P29476)
[28] = molecular target: Type-2 angiotensin II receptor (Rattus norvegicus, UniProt P35351)
Hrh3 protein = Hrh3 protein (Rattus norvegicus, UniProt Q5PPG3)
Sequence of Hrh3 protein (Q5PPG3 whole entry): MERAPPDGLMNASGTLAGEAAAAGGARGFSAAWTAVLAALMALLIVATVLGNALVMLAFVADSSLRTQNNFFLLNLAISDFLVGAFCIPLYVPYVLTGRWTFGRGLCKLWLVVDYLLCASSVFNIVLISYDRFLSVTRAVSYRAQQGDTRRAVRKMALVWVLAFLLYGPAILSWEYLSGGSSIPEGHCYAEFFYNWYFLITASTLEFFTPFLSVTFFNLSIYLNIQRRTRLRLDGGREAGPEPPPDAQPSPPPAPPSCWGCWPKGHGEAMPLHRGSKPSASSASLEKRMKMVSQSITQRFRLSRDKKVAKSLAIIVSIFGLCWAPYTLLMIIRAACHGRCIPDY

[29] = molecular target: Thyrotropin-releasing hormone receptor (Rattus norvegicus) (UniProt Q01717)
[30] = molecular target: Norepinephrine transporter (Rattus norvegicus, UniProt Q9JIA2)

Measured: Ki

CC(C)(C)c1ccc(NC(=O)N2CCN(c3ncccc3Cl)CC2)cc1 [BCTC]
> 10 µM: all assays above
